# Reference: patent US20230279025A1, “KRAS G12D INHIBITORS” (Mirati Therapeutics, Inc., priority 2020, published 2023)
# Counter-ions that a name gives are not always drawn.
# Tests used:
# [1] = system: KRas G12D-mediated phosphorylation of ERK in AGS cells (ATCC CRL-1739) expressing G12D; assay: Inhibition of KRas G12D-mediated Phosphorylation of ERK in AGS cells; assay type: cell-based; settings: Homo sapiens; phospho-ERK(Thr202/Tyr204) normalized to GAPDH, AGS cells, 3 hours; read-out: IC50
# Description: Cells were plated in tissue culture treated 96 well plates at a density of 40,000 cells/well and allowed to attach for 12-14 hours. Diluted compounds were then added in a final concentration of 0.5% DMSO. After 3 hours, the medium was removed, 150 μL of 4.0% formaldehyde was added and the plates incubated at room temperature for 20 minutes. The plates were washed with PBS, and permeabilized with 150 μL of ice cold 100% methanol for 10 minutes. Non-specific antibody binding to the plates was blocked using […] Licor blocking buffer (Li-Cor Biotechnology, Lincoln Nebr.) for 1 hour at room temperature.
# The amount of phospho-ERK was determined using an antibody specific for the phosphorylated form of ERK and compared to the amount of GAPDH. Primary antibodies used for the detection were added as follows: Phospho-ERK(Cell Signaling cs-9101) diluted 1:500 and GAPDH(Millipore MAB374) diluted 1:5000 in Licor block+0.05% Tween 20. The plates were incubated for 2 hours at room temperature. The plates were washed with PBS+0.05% Tween 20.
# Secondary antibodies used to visualize primary antibodies were added as follows: Anti-rabbit-680 diluted 1:1000 and Anti-mouse-800 diluted 1:1000 both in Licor block+0.05% TweeN20, and were incubated for 1 hour at room temperature. The plates were washed with PBS +0.05% Tween 20. A 100 μL aliquot of PBS was added to each well and the plates were read on a Li-Cor Odyssey CLX plate reader.
# KRas G12D [2] = target: T1, KRas G12D (Homo sapiens (Human), UniProt P01116, G12D); assay: KRas G12D Surface Plasmon Resonance (SPR) Binding Assay; settings: Biacore T200, immobilized biotinylated KRAS protein, 1:1 binding model
# Target sequence in this assay (P01116-2 other isoform, or with tags, fused parts or gaps G12D): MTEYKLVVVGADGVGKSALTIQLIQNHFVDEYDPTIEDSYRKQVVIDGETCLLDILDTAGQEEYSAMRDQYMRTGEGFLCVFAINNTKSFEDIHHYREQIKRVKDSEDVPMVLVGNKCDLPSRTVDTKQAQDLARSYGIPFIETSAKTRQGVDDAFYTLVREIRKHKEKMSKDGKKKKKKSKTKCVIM
# KRas G12D [3] = target: T1, KRas G12D; assay: KRas G12D Binding Assay (TR-FRET displacement of Cy5 labelled tracer); settings: GDP-loaded KRAS G12D (amino acids 1:169), 60 minute incubation at 22° C.
# Description: After a 60 minute incubation at 22° C., the reaction was measured using a PerkinElmer EnVision multimode plate reader via TR-FRET dual wavelength detection, and the percent of control (POC) calculated using a ratiometric emission factor. […] The POC values were fit to a 4-parameter logistic curve and the IC50 value was determined as the concentration where the curve crosses 50 POC.
# ND stands for “not determined.”
# Target sequence in this assay (P01116 other isoform, or with tags, fused parts or gaps G12D): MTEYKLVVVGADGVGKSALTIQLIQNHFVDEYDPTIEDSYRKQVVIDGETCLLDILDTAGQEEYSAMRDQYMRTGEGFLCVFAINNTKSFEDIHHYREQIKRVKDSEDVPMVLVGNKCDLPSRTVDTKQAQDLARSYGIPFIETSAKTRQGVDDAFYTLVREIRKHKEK
SMILES,IC50 [1] [nM],Kd (KRas G12D [2]) [nM],IC50 (KRas G12D [3]) [nM]
"Cc1cc2[nH]ncc2c(-c2ncc3c(N4C[C@H]5CC[C@@H](C4)N5)nc(OCC45CCCN4CC(F)C5)nc3c2F)c1Cl (mixture of isomers) [Example 376, 4-((1R,5S)-3,8-diazabicyclo[3.2.1]octan-3-yl)-7-(5-chloro-6-methyl-1H-indazol-4-yl)-8-fluoro-2-((2-fluorotetrahydro-1H-pyrrolizin-7a(5H)-yl)methoxy)pyrido[4,3-d]pyrimidine]",582,–,–
"Fc1c(-c2cccc3cccc(Cl)c23)ncc2c(N3C[C@H]4CC[C@@H](C3)N4)nc(OCCCN3C[C@@H]4C[C@H]3CO4)nc12 [Example 103, (1S,4S)-5-(3-((4-((1R,5S)-3,8-diazabicyclo[3.2.1]octan-3-yl)-7-(8-chloronaphthalen-1-yl)-8-fluoropyrido[4,3-d]pyrimidin-2-yl)oxy)propyl)-2-oxa-5-azabicyclo[2.2.1]heptane]",> 16700,–,–
"CN1CCC[C@H]1COc1nc(N2CC3CCC(CCC#N)(C2)N3)c2cnc(-c3cc(O)cc4ccccc34)c(F)c2n1 (stereo partly drawn) [Example 157, 3-(3-(8-fluoro-7-(3-hydroxynaphthalen-1-yl)-2-(((S)-1-methylpyrrolidin-2-yl)methoxy)pyrido[4,3-d]pyrimidin-4-yl)-3,8-diazabicyclo[3.2.1]octan-1-yl)propanenitrile bis(2,2,2-trifluoroacetate)]",–,22.9,26.6
"CN1CCC[C@H]1COc1nc(N2CC3CCC(Cl)(C2)N3)c2cnc(-c3cc(O)cc4ccccc34)c(F)c2n1 (stereo partly drawn) [Example 160, 4-(4-(1-chloro-3,8-diazabicyclo[3.2.1]octan-3-yl)-8-fluoro-2-(((S)-1-methylpyrrolidin-2-yl)methoxy)pyrido[4,3-d]pyrimidin-7-yl)naphthalen-2-ol bis(2,2,2-trifluoroacetate)]",–,0.3,120
"CN1CCC[C@H]1COc1nc(N2C[C@H]3CC[C@@H](C2)N3)c2cnc(-c3cccc4c3C(C)(C)CC4)c(F)c2n1 [Example 161, 4-((1R,5S)-3,8-diazabicyclo[3.2.1]octan-3-yl)-7-(3,3-dimethyl-2,3-dihydro-1H-inden-4-yl)-8-fluoro-2-(((S)-1-methylpyrrolidin-2-yl)methoxy)pyrido[4,3-d]pyrimidine bis(2,2,2-trifluoroacetate)]",–,403,273
"CN1CCC[C@H]1COc1nc(N2C[C@H]3CC[C@@H](C2)N3)c2cnc(-c3cccc4c3C3(CC4)CC3)c(F)c2n1 [Example 162, 4-((1R,5S)-3,8-diazabicyclo[3.2.1]octan-3-yl)-7-(2′,3′-dihydrospiro[cyclopropane-1,1′-inden]-7′-yl)-8-fluoro-2-(((S)-1-methylpyrrolidin-2-yl)methoxy)pyrido[4,3-d]pyrimidine bis(2,2,2-trifluoroacetate)]",–,555,677
"Cn1ccnc1CCOc1nc(N2C[C@H]3C[C@@H](O)[C@@H](C2)N3)c2cnc(-c3cccc4cccc(Cl)c34)c(F)c2n1 [Example 173, (1R,5R,6R)-3-(7-(8-chloronaphthalen-1-yl)-8-fluoro-2-(2-(1-methyl-1H-imidazol-2-yl)ethoxy)pyrido[4,3-d]pyrimidin-4-yl)-3,8-diazabicyclo[3.2.1]octan-6-ol]",–,117,99.2
"CC1CCc2cccc(-c3ncc4c(N5CC6CCC(C5)N6)nc(OC[C@@H]5CCCN5C)nc4c3F)c21 (stereo partly drawn) [Example 174, 4-((1R,5S)-3,8-diazabicyclo[3.2.1]octan-3-yl)-8-fluoro-7-(3-methyl-2,3-dihydro-1H-inden-4-yl)-2-(((S)-1-methylpyrrolidin-2-yl)methoxy)pyrido[4,3-d]pyrimidine]",–,186,63.9
"C#Cc1cccc2cccc(-c3ncc4c(N5C[C@H]6CC[C@@H](C5)N6)nc(OCC56CCCN5CCC6)nc4c3F)c12 [Example 179, 4-((1R,5S)-3,8-diazabicyclo[3.2.1]octan-3-yl)-7-(8-ethynylnaphthalen-1-yl)-8-fluoro-2-((hexahydro-1H-pyrrolizin-7a-yl)methoxy)pyrido[4,3-d]pyrimidine]",–,0.1,1.1
"Cc1c(-c2cc(O)cc3ccccc23)ncc2c(N3C[C@H]4CC[C@@H](C3)N4)nc(OC[C@@H]3CCCN3C)nc12 [Example 190, 4-(4-((1R,5S)-3,8-diazabicyclo[3.2.1]octan-3-yl)-8-methyl-2-(((S)-1-methylpyrrolidin-2-yl)methoxy)pyrido[4,3-d]pyrimidin-7-yl)naphthalen-2-ol]",–,76.1,64.1
"CO[C@@H]1CN2CCC[C@]2(COc2nc(N3C[C@H]4CC[C@@H](C3)N4)c3cnc(-c4cccc5cccc(Cl)c45)c(F)c3n2)C1 [Example 219, 4-((1R,5S)-3,8-diazabicyclo[3.2.1]octan-3-yl)-7-(8-chloronaphthalen-1-yl)-8-fluoro-2-((2-methoxytetrahydro-1H-pyrrolizin-7a(5H)-yl)methoxy)pyrido[4,3-d]pyrimidine bis-hydrochloride]",–,8.1,8.1
"Cc1cccc(F)c1-c1ncc2c(N3C[C@H]4CC[C@@H](C3)N4)nc(OCCc3nccn3C)nc2c1F [Example 316, 4-((1R,5S)-3,8-diazabicyclo[3.2.1]octan-3-yl)-8-fluoro-7-(2-fluoro-6-methylphenyl)-2-(2-(1-methyl-1H-imidazol-2-yl)ethoxy)pyrido[4,3-d]pyrimidine]",–,157000,> 10000
"COc1nc(N2C[C@H]3CC[C@@H](C2)N3)c2cnc(-c3cccc4cccc(C)c34)c(F)c2n1 [Example 317, 4-((1R,5S)-3,8-diazabicyclo[3.2.1]octan-3-yl)-8-fluoro-2-methoxy-7-(8-methylnaphthalen-1-yl)pyrido[4,3-d]pyrimidine]",–,91300,> 10000
"CN1CCC[C@H]1COc1nc(N2CC3CCC(C2)N3)c2cnc(-c3cccc4c3CCC4O)c(F)c2n1 (stereo partly drawn) [Example 318, 4-(4-((1R,5S)-3,8-diazabicyclo[3.2.1]octan-3-yl)-8-fluoro-2-(((S)-1-methylpyrrolidin-2-yl)methoxy)pyrido[4,3-d]pyrimidin-7-yl)-2,3-dihydro-1H-inden-1-ol]",–,368000,> 10000
"CCOC(=O)CCCOc1nc(N2C[C@H]3CC[C@@H](C2)N3)c2cnc(-c3cccc4cccc(Cl)c34)c(F)c2n1 [Example 319, Ethyl 4-((4-((1R,5S)-3,8-diazabicyclo[3.2.1]octan-3-yl)-7-(8-chloronaphthalen-1-yl)-8-fluoropyrido[4,3-d]pyrimidin-2-yl)oxy)butanoate]",–,256000,> 10000
"O=Cc1cc(CCCOc2nc(N3C[C@H]4CC[C@@H](C3)N4)c3cnc(-c4cccc5cccc(Cl)c45)c(F)c3n2)ccc1O [Example 320, 5-(3-((4-((1R,5S)-3,8-diazabicyclo[3.2.1]octan-3-yl)-7-(8-chloronaphthalen-1-yl)-8-fluoropyrido[4,3-d]pyrimidin-2-yl)oxy)propyl)-2-hydroxybenzaldehyde]",–,71600,> 10000
"O[C@@H]1C[C@@H]2CN(c3nc(OC[C@@]45CCCN4C[C@H](F)C5)nc4c(F)c(-c5cccc6cccc(Cl)c56)ncc34)C[C@H]1N2 [Example 395, (1R,5R,6R)-3-(7-(8-chloronaphthalen-1-yl)-8-fluoro-2-((2-fluorotetrahydro-1H-pyrrolizin-7a(5H)-yl)methoxy)pyrido[4,3-d]pyrimidin-4-yl)-3,8-diazabicyclo[3.2.1]octan-6-ol]",–,2.6,6.9
"Fc1c(-c2cccc3cccc(Cl)c23)ncc2c(N3CC4CC(F)C(C3)N4)nc(OC[C@@]34CCCN3C[C@H](F)C4)nc12 (stereo partly shown) [Example 396, 7-(8-chloronaphthalen-1-yl)-8-fluoro-4-(6-fluoro-3,8-diazabicyclo[3.2.1]octan-3-yl)-2-((2-fluorotetrahydro-1H-pyrrolizin-7a(5H)-yl)methoxy)pyrido[4,3-d]pyrimidine]",–,34.8,207
"CO[C@@H]1C[C@@H]2CN(c3nc(OC[C@@]45CCCN4C[C@H](F)C5)nc4c(F)c(-c5cccc6cccc(Cl)c56)ncc34)C[C@H]1N2 [Example 397, 7-(8-chloronaphthalen-1-yl)-8-fluoro-2-((2-fluorotetrahydro-1H-pyrrolizin-7a(5H)-yl)methoxy)-4-((1R,5R,6R)-6-methoxy-3,8-diazabicyclo[3.2.1]octan-3-yl)pyrido[4,3-d]pyrimidine]",–,183,887
"C#Cc1c(F)ccc2cc(O)cc(-c3ncc4c(N5C[C@H]6CC[C@@H](C5)N6)nc(OC[C@]56CCCN5C[C@@H](F)C6)nc4c3F)c12 [Example 482, 4-(4-((1R,5S)-3,8-diazabicyclo[3.2.1]octan-3-yl)-8-fluoro-2-(((2S,7aR)-2-fluorohexahydro-1H-pyrrolizin-7a-yl)methoxy)pyrido[4,3-d]pyrimidin-7-yl)-5-ethynyl-6-fluoronaphthalen-2-ol]",3.4,–,–
